Assay results as given in patent US7147837B2, “Bioactivated diagnostic imaging constrast agents” (Epix Pharmaceuticals, Inc., priority 1996, dated 2006).
Where two headings read alike, the source gives them in different places.

Legend:
[1] = biological target: T1, human serum albumin (HSA) (Homo sapiens, UniProt P02768); test: Longitudinal relaxivity (R1) in PBS containing 4.5% HSA; type: physicochemical; conditions: for Relaxivity in 4.5% HSA: longitudinal relaxivity R1, 20 MHz, 37° C., PBS pH 7.4 with 4.5% HSA, unit from R1 definition, not in table
T1 sequence (P02768 25-609): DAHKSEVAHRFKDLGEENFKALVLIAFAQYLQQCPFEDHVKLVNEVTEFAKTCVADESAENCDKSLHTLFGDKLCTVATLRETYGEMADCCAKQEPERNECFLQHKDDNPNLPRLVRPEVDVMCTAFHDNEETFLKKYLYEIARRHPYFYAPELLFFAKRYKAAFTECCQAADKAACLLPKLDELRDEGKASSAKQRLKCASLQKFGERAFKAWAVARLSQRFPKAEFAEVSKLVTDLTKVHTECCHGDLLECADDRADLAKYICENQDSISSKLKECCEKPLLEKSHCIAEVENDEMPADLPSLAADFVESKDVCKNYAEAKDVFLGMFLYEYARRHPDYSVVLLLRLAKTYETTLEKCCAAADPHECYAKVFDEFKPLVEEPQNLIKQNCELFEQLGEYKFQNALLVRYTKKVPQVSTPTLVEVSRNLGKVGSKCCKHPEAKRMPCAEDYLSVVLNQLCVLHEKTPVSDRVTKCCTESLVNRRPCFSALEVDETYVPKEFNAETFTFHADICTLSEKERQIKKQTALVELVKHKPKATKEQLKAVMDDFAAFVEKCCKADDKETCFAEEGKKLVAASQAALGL
Text: The magnetic resonance phenomena is complex, and different paramagnetic materials alter the MRI signal to various degrees. See R. B. Lauffer, Chemical Reviews (1987), 87, pp. 901–927. A quantitative measurement of the ability of a contrast agent to relax water protons, and consequently affect the MRI image, is provided by its relaxivity. Relaxivity is the dependence of water proton signal intensity upon the concentration of paramagnetic metal ion in solution. Relaxivity is defined as the induced T1 or T2 relaxation per unit time (R1 or R2 in units of mM^−1 sec^−1) observed for a contrast agent, where the concentration of the agent is expressed in a millimolar (mM).
The degree to which an agent has been tuned for maximum relaxivity can be assessed by measuring the relaxivity-bound (R1-bound) in the presence of HSA. This requires measuring the relaxivity of the free chelate (R1-free) as well as the relaxivity (R1-observed) and percent binding of the agent in 4.5% HSA. The R1-observed is a mole fraction weighted average of R1-free and R1-bound: R1-observed=(fraction-free*R1-free)+(fraction-bound*R1-bound) Thus:
(§1) In Table V, the longitudinal relaxivities (R1) were obtained at 20 MHz and 37° C. by determining the concentration dependent relaxation rate (1/T1) of water protons in phosphate buffered saline (PBS, 150 mM NaCl, 10 mM phosphate, pH=7.4) or in PBS solutions containing 4.5% human serum albumin (HSA). The percent bound to HSA was determined by ultrafiltration of a 0.1 mM chelate, 4.5% HSA solution.

alkaline phosphatase [2] = test: T1-weighted MRI scan at 1.0 Tesla of 4.5% HSA solutions with or without alkaline phosphatase; type: biochemical
Description: Solutions of 4.5% HSA containing compounds 1 and 8 (0.1–0.2 mM) were prepared. After 15 minutes, an initial T1-weighted MRI scan (FISP-3D, TR=60, TE=5, alpha=60) at 1.0 Tesla of the 4.5% HSA solutions was obtained. […] Three units of alkaline phosphatase were added to half of the HSA solutions containing 1 and additional T1-weighted MRI scans were obtained. After 130 minutes, the solutions that contained 1 and alkaline phosphatase obtained 96% of the signal intensity that for the solutions that contain 8 at equivalent concentrations. […] A 20% increase in signal intensity was observed after addition of alkaline phosphatase to solutions containing 1.

[3] = biological target: T1, human serum albumin (HSA); test: Percent bound to HSA by ultrafiltration; type: binding; conditions: for Percent Binding in 4.5% HSA: ultrafiltration, 0.1 mM chelate
Description: Protein binding of contrast agents can be assessed in vitro by equilibrium dialysis or ultrafiltration using a physiologically relevant protein concentration in buffer. See, G. N. Rolinson and R. Sutherland, British J. Pharmac. Chemother. (1965), 25, p. 638 (ultrafiltration); D. Glick, Methods Biochem. Anal. (1956), 3 p. 265 (equilibrium dialysis). The protein binding measurements set forth in this application are determined by ultrafiltration using 4.5% (w/w) human serum albumin in phosphate buffered saline (0.15 NaCl, 10 mM phosphate, pH 7.4). Preferably at least 10%, and more preferably at least 50%, and even more preferably at least 80%, and most preferably at least 95%, of an activated protein-binding contrast agent will be bound to the protein under physiologically relevant conditions. In this application, the measurement of percent binding of the contrast agent to HSA has an error of approximately +/−5%. Protein binding to other proteins or to serum can be assessed in a similar fashion.
as §1

alkaline phosphatase [4] = test: Bioactivation of prodrug by alkaline phosphatase in 4.5% HSA, 1/T1 monitored over time; type: biochemical; conditions: for 1/T1: 4.5% HSA, three units alkaline phosphatase, 20 MHz
Description: A solution of prodrug 1 (0.3 mM) was prepared in PBS buffer (pH 7) containing 4.5% HSA. […] Three units of alkaline phosphatase (1 unit converts […] of p-nitrophenylphosphate to p-nitrophenol per minute in phosphate buffered saline at 0.1 mM substrate) were added to the 4.5% HSA solution of compound 1 and the 1/T1 was monitored over time.

HSA [5] = biological target: T2, HSA (Homo sapiens, UniProt P02768); conditions: cited from earlier work
T2 sequence (P02768 25-609): as above

HSA [6] = biological target: T2, HSA; conditions: cited from earlier work; remark: listed apart in the source
[7] = system: alpha 1-acid glycoprotein (AAG); conditions: binding to AAG; cited from earlier work
[8] = cited from earlier work
HSA [9] = biological target: T2, HSA; conditions: cited from earlier work; remark: listed apart in the source

**Q.** Which results are given for `O=C(O)CN(CCN(CC(=O)O)CC(COc1ccc(-c2ccc(OP(=O)(O)O)cc2)cc1)N(CC(=O)O)CC(=O)O)CC(=O)O` (centres unmarked) (Gd complex, metal not drawn) [Compound 1]?
**A.** Relaxivity in 4.5% HSA [1]: 15.9 ± 0.2 mM⁻¹ s⁻¹; MRI image without alkaline phosphatase (alkaline phosphatase [2]; 4.5% HSA, no alkaline phosphatase, during the MRI scans): remained as constant dark images; increase in signal intensity (alkaline phosphatase [2]; after addition of alkaline phosphatase): 20%; signal intensity relative to solutions containing 8 (alkaline phosphatase [2]; with three units alkaline phosphatase, after 130 minutes, equivalent concentrations): 96%; Percent Binding in 4.5% HSA [3]: 47 ± 1%; change in 20 MHz proton relaxation rate 1/T1 with time (alkaline phosphatase [4]; 0.3 mM in PBS (pH 7) with 4.5% HSA, before addition of alkaline phosphatase): No change; 1/T1 (alkaline phosphatase [4]; 0.3 mM prodrug in PBS (pH 7), time 0 min): 4.440 s⁻¹; 1/T1 (alkaline phosphatase [4]; 0.3 mM, time 1 min): 4.348 s⁻¹; 1/T1 (alkaline phosphatase [4]; 0.3 mM, time 2 min): 4.651 s⁻¹; 1/T1 (alkaline phosphatase [4]; 0.3 mM, time 4 min): 4.878 s⁻¹; 1/T1 (alkaline phosphatase [4]; 0.3 mM, time 6 min): 5.025 s⁻¹; 1/T1 (alkaline phosphatase [4]; 0.3 mM, time 14 min): 5.376 s⁻¹; 1/T1 (alkaline phosphatase [4]; 0.3 mM, time 48 min): 6.250 s⁻¹; 1/T1 (alkaline phosphatase [4]; 0.3 mM, time 90 min): 6.849 s⁻¹; 1/T1 (alkaline phosphatase [4]; 0.3 mM, time 110 min): 7.042 s⁻¹; 1/T1 (alkaline phosphatase [4]; 0.3 mM, time 137 min): 7.299 s⁻¹; approximate expected increase in signal intensity (alkaline phosphatase [4]; corresponding to the change in 1/T1 upon complete activation): ~24%; change in 1/T1 from time zero (alkaline phosphatase [4]; upon completion of enzymatic activation of 1 to 8): 2.86 s⁻¹

**Q.** What does the source list for `O=C(O)CN(CCN(CC(=O)O)CC(COc1ccc(-c2ccc(O)cc2)cc1)N(CC(=O)O)CC(=O)O)CC(=O)O` (centres unmarked) [Compound 8]?
**A.** relaxivity compared with prodrug ([1]; bound to HSA, 0.1 mM): higher relaxivity; Relaxivity in 4.5% HSA [1]: 26.4 ± 0.4 mM⁻¹ s⁻¹; brightness of T1-weighted MRI scan (alkaline phosphatase [2]; 0.1–0.2 mM in 4.5% HSA, 1.0 Tesla, equivalent concentrations, no enzyme): brighter than the solutions containing 1; HSA binding affinity compared with prodrug ([3]; concentration of 0.1 mM): greater affinity than prodrug 1; Percent Binding in 4.5% HSA [3]: 63 ± 2%

**Q.** Which “fraction bound to HSA (fb)” value (HSA [5]) does the source give for `CCn1cc(C(=O)O)c(=O)c2cc(F)c(N3CCNC(C)C3)c(F)c21` (centres unmarked) [NY-198] here?
**A.** Its value is 0.28.

**Q.** For `C[C@H](CCC(=O)O)[C@H]1CC[C@H]2[C@@H]3[C@H](O)C[C@@H]4C[C@H](O)CC[C@]4(C)[C@H]3CC[C@]12C` [chenodeoxycholic acid], which binding constant (HSA [6]) is on record?
**A.** The binding constant was 5.5×10^4.

**Q.** Which Ka [7] does the source give for `CN(C)CCCN1c2ccccc2Sc2ccc(Cl)cc21` [chlorpromazine] here?
**A.** The Ka was 35.4×10^5.

**Q.** Which “fraction bound to HSA (fb)” value (HSA [5]) does the source give for `CCn1cc(C(=O)O)c(=O)c2cc(F)c(N3CCNCC3)nc21` [enoxacin] here?
**A.** Its value is 0.35.

**Q.** With `CC1(C)C(/C=C/C=C/C=C/C=C2\N(CCCCS(=O)(=O)O)c3ccc4ccccc4c3C2(C)C)=[N+](CCCCS(=O)(=O)[O-])c2ccc3ccccc3c21` [indocyanine green] as the compound, how does the maximal absorbance ([8]; before binding to proteins) read?
**A.** The maximal absorbance was 770–780 nm.

**Q.** What about the maximal absorbance ([8]; upon binding to proteins in plasma or blood) of the same compound?
**A.** Its maximal absorbance is 790–805 nm.

**Q.** With `O=C(CCCCC(=O)Nc1c(I)cc(I)c(C(=O)O)c1I)Nc1c(I)cc(I)c(C(=O)O)c1I` [iodipamide] as the compound, how does the “binding to HSA” value (HSA [9]) read?
**A.** The value was > 98%.

**Q.** With `COn1cc(C(=O)O)c(=O)c2cc3c(cc21)OCO3` [miloxacin] as the compound, how does the “fraction bound to HSA (fb)” value (HSA [5]) read?
**A.** Its value is 0.86.

**Q.** For `CCn1cc(C(=O)O)c(=O)c2ccc(C)nc21` [nalidixic acid], which “fraction bound to HSA (fb)” value (HSA [5]) is on record?
**A.** The value was 0.71.
